Here are results for one sequence from patent publication US20070081991A1, “Compositions and methods for modulation of immune responses” (Pepgen Corporation, priority 2001, published 2007).

Entries after “also recorded” stand apart in the source; their conditions may differ.

What all share (assay type): cell-based, human
Assay [1] relates to NKL and Nishi effector cells. Briefly: Killing of K562-E*01033 cells grown at increasing cell density (stress), 2 h 51Cr release. Particulars: peptide added in the assay; 100 mM B7sp (FIG. 6b legend). The protocol: (a) Killing of K562-E*01033 cells (grown at increasing cell densities as in FIG. 3b) by NKL in a 2 h 51Cr release assay. (b) Same experimental setting as above, in the presence of 100 mM B7sp. Closed circles-high density; open squares-medium density; closed triangles-low density. (c) HLA-E expression on the K562-E*01033 cells after culture at increasing cell density.
Briefly, cell cultures were set up at the cell concentration of 0.2.10^6 cells/ml at different time points for a period of up to 6 days. At the end point, cell concentration and viability were determined by trypan blue exclusion. The expression of cell-surface HLA class I molecules was assessed by flow cytometry. Cell cultures with viability higher than 90% and at three different densities were selected as targets for cytotoxic assays. HLA-E Tetramer Production
K562-E*01033 cells grown at different densities were tested as targets in a 2 hours chromium release assay with NKL and Nishi as effector cells. […] The data also subbest that HLA-E expression induced by stress is not sufficient to protect from NK cell mediated killing. […] Therefore it is unlikely that the increased killing after cellular stress observed in some of the experiments herein is due to an increased expression of MIC-A or MIC-B. Up-regulation of other activating ligands, e.g., ULBP's, may also be responsible for the increase in killing.

The next assay relates to HLA-E. Briefly: HLA-E stabilization assay (cell surface expression by flow cytometry). Particulars: K562 cells transfected with HLA-E*01033 or HLA-E*0101; overnight incubation with peptide at 26° C. As for the experimental part:
Synthetic peptides, purchased from Research Genetics, were dissolved in PBS. The peptides used were B7sp ([…]) (SEC ID NO: 3), hsp60sp ([…]) (SEC ID NO: 2), B7 R5V ([…]) (SEC ID NO: 14), hsp60 V5R ([…]) ([…]), and P18I10 ([…]) (SEC ID NO: 113) (all from Research Genetics, Huntsville, Ala.). Cells and their HLA-E transfected derivatives were incubated with synthetic peptides (3-300 μM) at 26° C. for 15-20 hours in serum-free AIM-V medium (GibcoBRL, Paisley Scotland) at a concentration of 1-3.10^6 cells/ml. Cells were then harvested, washed in PBS, stained with mAbs and analyzed by flow cytometry. Cells were subjected to stress by allowing them to grow at increasing cell density.
To test whether the hsp60-derived peptides were able to bind HLA-E, stabilized HLA-E cell surface expression was stabilized with the different synthetic peptides, by overnight incubation at 26° C. For this purpose MHC class I-deficient cell lines such as 721.221 (which lack HLA-A, -B, -C, and -G, but express HLA-E and -F intracellularly), as well as K562 cells transfected with HLA-E*01033 (K562-E*01033) or HLA-E*0101 were employed. The 721.221 cells and HLA-E transfected, but not untransfected, K562 cells express low levels of HLA-E at the cell surface during normal cell growth.
(Flow cytometry measures light scatter and fluorescence of single cells or particles in a stream.)

The subject of assay [2] is CD94/NKG2A+ NK cell lines Nishi and NKL. The experiment in a line: NK cell-mediated cytotoxicity, 2 h 51Cr release, peptide-loaded K562-E*01033 targets. The conditions noted are these: targets incubated overnight at 26° C. with peptide; effectors NKL and Nishi. The protocol:
K562-E*01033 cells were incubated with the different peptides at 26° C. for 15-20 hours, and then tested in 2 h 51Cr release assays. In order to ensure that the levels of HLA-E with a protective peptide, and not the HLA-E levels as such, provided the protective capacity we kept the non-protective peptides, but omitted the B7sp, during the assays. (a) Killing of K562-E*01033 cells by NKL (left) or Nishi (right) after incubation with […], 300 mM hsp60sp, or 30 mM B7sp. 50 mM of P18I10 control peptide and hsp60sp was also included during the assays. Data from an E:T ratio of 30:1 is shown. The figure represents the mean of at least three experiments. Error bars indicate standard error of the mean. (b) Killing of K562-E*01033 cells by NKL (left panel) or Nishi (right panel) incubated over night with 30 mM 7sp, 300 mM P18I10 (pCtrl), 300 mM B7 R5V, 300 mM hsp60sp, or 300 mM hsp60 V5R. 50 mM of all peptides, except B7sp, were included during the assay. Peptide concentrations were chosen according to FIG. 5c. The figure represents the mean of at least three experiments. Error bars indicate standard error of the mean. (c) HLA-E cell surface expression by K562-E*01033 after the assay. A cold target preparation was prepared in parallel as in (a) and (b), and then stained with DX17 mAb (anti-HLA class I), followed by RPE-conjugated goat-anti-mouse IgG. One representative example out of more than 5 is shown. Note that, as in (a) and (b), 50 mM of all peptides, except for B7sp, was present during the time of the assay, explaining the lower HLA-E expression with B7sp compared to Hsp60sp, Hsp60 V5R and B7 R5V. (d) Killing of K562-E*01033 cells by Nishi after incubation for 30 min at room temperature with 0.1 mM B7sp and increasing amounts of competing peptides (hsp60sp, hsp60.4, B7 R5V and P18I10). All the peptides were kept throughout the assay
NK cell-mediated cytotoxicity was measured using a 2 hours standard ^51Cr radioisotope release assay. Briefly, target cells were incubated for 15-20 hours at 26° C. with the various peptides at concentrations ranging from 1-300 μM, and then labeled with ^51Cr. Peptides were washed away prior to setting up the assays, except in some experiments where the non-protective hsp60sp, B7 R5V and hsp60 V5R was kept throughout the assay to assure higher levels of HLA-E expression, as compared to targets incubated with the protective B7sp. In mAb blocking experiments, cells were preincubated with mouse serum, or an irrelevant isotype matched antibody to block Fc-receptors. Blocking of either target or effector cells with mAbs was performed at 4° C., and the antibodies were also included during the assays. […]

The test system of assay [3] is NK cells of PB and SF mononuclear cells of RA patients. Briefly: NK cell cytokine production on contact with peptide stabilized K562 HLA-E*01033 cells (intracellular staining, flow cytometry). Particulars: K562 HLA-E*01033 stabilized with various doses of peptide; 1:1 cell ratio, 4 hours. As for the experimental part:
HLA-E expression was stabilized on K562 cells transfected with HLA-E*01033, by incubation with various doses of HLA-B7 signal sequence derived peptide ([…]) (SEQ ID NO: 3). PB and SF mononuclear cells (MC) of RA patients were then incubated with peptide stabilized K562 cells (1:1 cell ratio) for 4 hours in the presence of GolgiStop™. Cells were surface stained for CD3 and CD56 and thereafter stained intracellularly for IFN-gamma or TNF-alpha. Analysis was performed by flow cytometry.

With VMAPRTVLL [B7sp], the “rescue of stressed (high density) K562-E*01033 cells from killing” value in assay [1] is given as “could be rescued from killing by addition of B7sp peptide; also recorded: stressed cells were protected simply by adding the protective B7sp peptide”. Also, the “HLA-E cell surface expression (stabilization)” value in the assay on HLA-E is given as “stabilization of HLA-E”. For the same sequence, the “protection of K562-E*01033 cells from killing by NK cells” value in assay [2] is “clear protection from killing”. In assay [3], the “NK cell IFN-gamma production” value was “sufficient to inhibit NK cell IFN-gamma and TNF-alpha cytokine production”; the “NK cell TNF-alpha production” value was “sufficient to inhibit NK cell IFN-gamma and TNF-alpha cytokine production”.
